Data from paper PMC5424110, “Preclinical anti-arthritic study and pharmacokinetic properties of a potent histone deacetylase inhibitor MPT0G009” (Cell Death & Disease, 2014).
Entries after “also recorded” stand apart in the source; their conditions may differ. Where two headings read alike, the source gives them in different places.

What was measured:
RAW264.7 cells = experiment: Inflammatory mediator production by LPS-stimulated RAW264.7 cells; format: cell-based, mouse; settings: RAW264.7, LPS 25 ng/ml 24 h; MPT0G009 0.1, 1 or 10 μM; SAHA 0.3, 3 or 30 μM
Experimental: (§1) (a) Structure of MPT0G009.
(§2) These supernatants were then assayed for prostaglandin E2 (PGE2), NO and IL-6.

p21 in RA-FLS = experiment: p21 expression in RA-FLS by flow cytometry
Experimental: After three washes with FACS washing buffer, the fluorescence of the cells was analyzed on a FACScan flow cytometer (BD Biosciences). […] They were then incubated for 30 min at room temperature with 0.2 ml of DNA extraction buffer (0.2 M Na2HPO4 and 0.1 M citric acid buffer, pH 7.8), resuspended in 1 ml of propidium iodide staining buffer (0.1% Triton X-100, 100 μg/ml of RNase A and 80 μg/ml of propidium iodide in PBS), incubated at 37 °C for 30 min in the dark, sorted by FACScan, and analyzed using CellQuest software (BD Biosciences).

[1] = tested on: RA fibroblast-like synoviocyte (RA-FLS); experiment: Inflammatory mediator production by stimulated RA-FLS; format: cell-based, human; settings: MPT0G009 0.1, 1 or 10 μM, SAHA 0.3, 3 or 30 μM
Experimental: as §1, §2

[2] = tested on: histone H3 acetylation and HDAC3 in RA-FLS; experiment: Western blot of acetyl histone H3 and HDAC isoforms, RA-FLS; format: cell-based, human
Experimental: Then, cells were harvested and cell lysates were prepared for western blot analysis of the indicated proteins. (c) RA-FLSs were incubated for 1 h with or without the proteasome inhibitor, MG132 (1 μM). […] Results shown are representative of three independent experiments.

[3] = tested on: histone H3 acetylation in HIG-82 synoviocytes; experiment: Western blot of acetyl histone H3, HIG-82 cells; format: cell-based, rabbit; settings: 3 μM MPT0G009 or 60 μM SAHA, 6, 12 or 24 h, starting at 6 h
HIG-82 synoviocytes = experiment: Cell proliferation assay (SRB), HIG-82 synoviocytes; format: cell-based, rabbit; settings: 24 or 48 h
[4] = parameters: method as in PMID 17473456; settings: rat, cited from earlier work
rat AIA model = experiment: In vivo adjuvant-induced arthritis (AIA) model; settings: day 21, ELISA, MPT0G009 25 mg/kg, SAHA 200 mg/kg, indomethacin 1 mg/kg
Experimental: Next, we evaluated the in vivo anti-arthritic effects of MPT0G009 in a rat AIA model. […] The inhibition of synoviocytes proliferation and inflammation by MPT0G009 treatment was also observed (Supplementary Figure 1).
Figure 5 MPT0G009 inhibits the development of arthritis in an AIA model. […] Subsequently, swelling of both hind paws was photographed. (b) Hind paw volumes in the indicated group of rats were measured using a digital plethysmometer on the indicated day after AIA induction. (c) Arthritis scores on day 21. (d) Serum levels of interleukin (IL)-1β (left panel) and IL-6 (right panel) on day 21 as measured by enzyme-linked immunosorbent assay (ELISA). (e) Top five rows: photomicrographs of ankle joint sections from the different groups stained with hematoxylin and eosin, safranin O, immunohistochemically stained with an anti-acetyl H3 antibody or TRAP stain. Arrows indicate osteoblasts (OB); arrowheads indicate osteoclasts (OC). Bottom panels: micro-CT results (arrows indicate bone erosion). (f) The BMD (in mg/mm^3) and the BMC (in mg) values for the bone tissue of the tarsus were analyzed using CT Analysis Software.
Five-week-old male Lewis rats were obtained from the National Laboratory Animal Center (Taipei, Taiwan). Complete Freund's adjuvant (CFA) was prepared by suspending heat-killed Mycobacterium butyricum (Difco, Sparks, MD, USA) in mineral oil at 3 mg/ml. CFA-induced arthritis was induced by intradermal injection of 100 μl of the CFA emulsion into the base of the right hind paw on day 0. […] On days 0, 2, 6, 9, 13, 17 and 21, the animals were weighed and both hind paw volumes measured using a digital plethysmometer (Diagnostic & Research Instruments Co. Ltd, Taipei, Taiwan). On day 21, micro-CT of the paws was performed by the Core Facilities Center of the National Research Program for Biopharmaceuticals using an in vivo micro-CT scanner (Skyscan 1176, Bruker Corp., Kontich, Belgium) at 18 μm resolution and 180° scanning with a rotation step of 0.8° per image, 300 ms integration time, 70 keV photon energy and 350 μA current. The reconstructed volumes from micro-CT scans were analyzed by CT Analysis Software (CTAn, Bruker Corp.). Quantification of volumetric BMD and bone volume (BV) was performed in a defined bone area ranging 12 mm from tarsals to the end of the calcaneus. The BMC was described by the product of BV and BMD. On day 21, the rats were killed and specimens from the phalanges and ankle joints stained with hematoxylin–eosin or safranin O for histopathological assessment by the National Laboratory Animal Center. Intensity of arthritis was scored as described previously from 0 to 4.[19] All four legs were scored, so the highest possible arthritic score was 16.

RA-FLS [5] = experiment: Cell proliferation assay (SRB), RA-FLS; format: cell-based, human; settings: 24 or 48 h
RAW264.7 macrophages = experiment: Osteoclast differentiation assay (TRAP stain), M-CSF/RANKL-induced; format: cell-based, mouse; settings: RAW264.7, M-CSF/RANKL 50 ng/ml 5 days; 5 nM MPT0G009 or 50 nM SAHA
Experimental: Osteoclast formation was measured by quantifying cells stained for the osteoclast marker TRAP using an acid phosphatase kit (387-A; Sigma-Aldrich). Briefly, the specimens were fixed for 30 s in fixative solution (25.5% citrate solution, 66.3% acetone, 8.2% of 37% formaldehyde), then incubated for 1 h at 37 °C with a mixture of the provided naphthol AS-BI phosphate and tartrate solutions, followed by counterstaining with hematoxylin solution. Osteoclasts were counted as TRAP-positive multinuclear (>3 nuclei) cells using light microscopy. The morphological features of osteoclasts were also photographed.

[6] = tested on: CD51/61 on RAW264.7 cells; experiment: Osteoclast-specific marker CD51/61 by flow cytometry; settings: RAW264.7, M-CSF/RANKL; 5 nM MPT0G009 or 50 nM SAHA
Experimental: Subsequently, multinucleate tartrate-resistant acid phosphatase (TRAP)-positive cells were counted.
Cells were then TRAP stained, and the numbers of TRAP-positive multinuclear cells were counted. […] Images are at × 100 magnification, and the arrows indicate differentiated osteoclasts.
Cells were then TRAP stained, and the numbers of TRAP-positive multinuclear cells were counted (d) or were incubated with a FITC-conjugated anti-CD51/61 antibody and analyzed by flow cytometry (e).
After three washes with FACS washing buffer, the fluorescence of the cells was analyzed on a FACScan flow cytometer (BD Biosciences).

RA-FLS [7] = experiment: Cell cycle distribution by propidium iodide flow cytometry; format: cell-based, human; settings: RA-FLS 24 h, MPT0G009 1–1000 nM, SAHA 3–3000 nM

SMILES: O=C(CCCCCCC(=O)Nc1ccccc1)NO [SAHA, suberoylanilide hydroxamic acid, reference compound]
- NO production (RAW264.7 cells): inhibited
- PGE2 production (RAW264.7 cells): inhibited
- expression of p21 (p21 in RA-FLS; RA-FLS 24 h, 1 μM MPT0G009 or 3 μM SAHA, flow cytometry or western blot): significantly increased
- p21 (flow cytometry) (p21 in RA-FLS; RA-FLS, 3 μM, 24 h, Figure 1h): 96.42%
- IL-6 production ([1]; IL-1β 10 ng/ml 24 h): inhibited
- PGE2 production ([1]; LPS 25 ng/ml 24 h): inhibited
- acetylation of histone H3 (Acetyl-H3) ([2]; 1 μM MPT0G009 or 30 μM SAHA, 6, 12 or 24 h, starting at 12 h): had a similar effect
- levels of HDAC3 ([2]; 12 or 24 h, 1 μM MPT0G009 or 30 μM SAHA): had no effect
- acetylation of histone H3 (Acetyl-H3) [3]: had a similar effect
- anti-proliferative effect (HIG-82 synoviocytes): concentration-dependent anti-proliferative effects
- AUC(0-inf) ([4]; i.v. 2 mg/kg): 278 ng·h/mL
- CL ([4]; i.v. 2 mg/kg): 134 mL/min/kg
- T1/2 ([4]; i.v. 2 mg/kg): 38.4 min
- Vd ([4]; i.v. 2 mg/kg): 3.92 L/kg
- AUC(0-inf) ([4]; p.o. 5 mg/kg): 49.40 ng·h/mL
- Cmax ([4]; p.o. 5 mg/kg): 83.90 ng/mL
- F (oral bioavailability) ([4]; p.o. 5 mg/kg): 6.9%
- T1/2 ([4]; p.o. 5 mg/kg): 67.8 min
- Tmax ([4]; p.o. 5 mg/kg): 10.2 min
- serum levels of IL-1β (rat AIA model): significant decreases
- serum levels of IL-6 (rat AIA model): significant decreases
- anti-proliferative effect (RA-FLS [5]): concentration-dependent anti-proliferative effects
- formation of M-CSF/RANKL-induced TRAP-positive cells (RAW264.7 macrophages): had no effect; also recorded: had little effect
- expression of the osteoclast-specific marker (CD51/61) [6]: had no effect
- subG1 peak (cellular apoptosis) (RA-FLS [7]): did not increase the subG1 peak
- cell cycle arrest (RA-FLS [7]; all concentrations): G0/G1 phase arrest

SMILES: COc1ccc2c(c1)c(CC(=O)O)c(C)n2C(=O)c1ccc(Cl)cc1 [indomethacin, reference compound]
- serum levels of IL-1β (rat AIA model): significant decreases
- serum levels of IL-6 (rat AIA model): significant decreases
